Results: patent publication US20260242395A1, “AMINOHETEROARYL KINASE INHIBITORS” (ALLORION THERAPEUTICS INC, priority 2022, published 2026)

Tests used:
Type in all cases: biochemical
CDK7/CyclinH/MAT1 = molecular target: T1, CDK7/CyclinH/MAT1 (Homo sapiens, UniProt P50613); assay: CDK7/CyclinH/MAT1 kinase inhibitory activity (Caliper mobility shift); settings: enzyme 12.5 nM, ATP 70 μM, 28° C. 30 min; read-out: CDK7/Cyclin H/MAT1 IC50
T1 construct: purchased Millipore 14-476M
Experimental: CDK7/CyclinH/MAT1 kinase inhibitory activity (IC50): 5 μl of various dilutions of test compound in 1× kinase buffer (20 mM HEPES, pH 7.5, 10 mM MgCl2, 2 mM DTT and 0.01% Triton X-100) was mixed with 10 μL of CDK7/CyclinH/MAT1 (Millipore, 14-476M #, final concentration 12.5 nM in 1× Kinase buffer) in 384 plates and incubated at room temperature for 10 min. To initiate each reaction, 10 μL of peptide solution containing fluorescently-labeled-peptide CTD3 (5-FAM-[…], GL, SY346885 #, final concentration 3000 nM) and ATP (final concentration 70 μM) in 1× Kinase buffer was added to each of the wells containing test compound and CDK7/CyclinH/MAT1 mixture. The reaction is then allowed to proceed at 28° C. for 30 min and terminated by the addition of 25 μL stop buffer (100 mM HEPES pH 7.5, 50 mM EDTA, 0.2% Coating Reagent #3 (Perkin Elmer, 760050 #) and 0.015% Brij-35).
(§1) Following the kinase reaction, Caliper EZ reader II (Downstream voltages: −500V, Upstream voltages: −2250V, Base pressure −0.5 PSI, Screen pressure −1.2 PSI) was used to separate the phosphoiylated (product) and the unphosphorylated (substrate) fluorescently-labeled peptide CTD3 based on their different mobility. Both substrate and product were measured and the ratio of these values were used to generate % conversion by Caliper EZ reader II. These conversion values were then transformed into % inhibition of kinase activity using the formula: % Inhibition=[(MA−X)/(MA−MI)]×100% where MA=conversion value of DMSO only controls, MI=conversion value of no enzyme controls and X=conversion value at any given compound dose. IC50 values were then calculated by plotting dose-response curves and then using the XLfit application in Excel software.

CDK6/CyclinD3 = molecular target: T2, CDK6/CyclinD3 (Homo sapiens, UniProt Q00534); assay: CDK6/CyclinD3 kinase inhibitory activity (Caliper mobility shift); settings: enzyme 15 nM, ATP 800 μM, 28° C. 30 min; read-out: CDK6/Cyclin D3 IC50
T2 construct: purchased Carna 04-107
Method in brief: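 Compound preincubated 10 min at room temperature with CDK6/CyclinD3 (15 nM final) in HEPES pH 7.5/MgCl2/DTT buffer; reaction with 5-FAM peptide (3000 nM) and ATP 800 μM, 30 min at 28°C, stopped with EDTA. Substrate/product separated by microfluidic mobility shift; % conversion converted to % inhibition, IC50 from dose-response curves.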

CDK2/CyclinE1 = molecular target: T3, CDK2/CyclinE1 (Homo sapiens, UniProt P24941); assay: CDK2/CyclinE1 kinase inhibitory activity (Caliper mobility shift); settings: enzyme 3 nM, ATP 77 μM, 28° C. 30 min; read-out: CDK2/Cyclin E1 IC50
T3 construct: purchased Carna 04-165
Experimental: CDK2/CyclinE1 kinase inhibitory activity (IC50): 5 μl of various dilutions of test compounds in 1×kinase buffer (50 mM HEPES pH 7.5, 10 mM MgCl2, 2 mM DTT and […] Brij-35) were mixed with 10 μL of CDK2/CyclinE1 (Carna, 04-165 #, final concentration 3 nM in 1×Kinase buffer) in 384 plates and incubated at room temperature for 10 min. To initiate each reaction, 10 μL of peptide solution containing fluorescently-labeled-peptide 18(5-FAM-QSPKKG-CONH2) (GL, 114202 #, final concentration 3000 nM) and ATP (final concentration 77 μM) in 1×Kinase buffer was added to each of the wells containing test compound and CDK2/CyclinE1 mixture. The reaction was then allowed to proceed at 28° C. for 30 min and terminated by the addition of 25 μL stop buffer (100 mM HEPES pH 7.5, 50 mM EDTA, 0.2% Coating Reagent #3 (Perkin Elmer, 760050 #) and 0.015% Brij-35).
as §1, with “phosphorylated” for “phosphoiylated”, “18” for “CTD3”

T1 sequence (P50613 whole entry): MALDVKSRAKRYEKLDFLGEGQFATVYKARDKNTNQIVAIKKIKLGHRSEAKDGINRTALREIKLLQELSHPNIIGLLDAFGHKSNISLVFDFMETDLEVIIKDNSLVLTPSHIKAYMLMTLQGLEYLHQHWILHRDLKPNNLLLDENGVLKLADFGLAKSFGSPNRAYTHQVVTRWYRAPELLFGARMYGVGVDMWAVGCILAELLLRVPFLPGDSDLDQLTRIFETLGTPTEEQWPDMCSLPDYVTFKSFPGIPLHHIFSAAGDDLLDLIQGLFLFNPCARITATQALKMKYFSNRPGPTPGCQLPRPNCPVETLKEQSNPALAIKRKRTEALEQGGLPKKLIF
T1 sequence (P51946 whole entry partner): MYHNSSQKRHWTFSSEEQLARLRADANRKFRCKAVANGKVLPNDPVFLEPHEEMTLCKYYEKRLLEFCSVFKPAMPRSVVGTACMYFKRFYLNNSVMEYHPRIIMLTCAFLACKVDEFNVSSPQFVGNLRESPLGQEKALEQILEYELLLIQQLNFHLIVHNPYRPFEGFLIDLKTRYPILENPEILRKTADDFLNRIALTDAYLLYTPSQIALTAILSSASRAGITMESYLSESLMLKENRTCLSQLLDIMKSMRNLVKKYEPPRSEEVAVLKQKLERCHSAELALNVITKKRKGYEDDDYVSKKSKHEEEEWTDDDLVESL
T1 sequence (P51948 whole entry partner): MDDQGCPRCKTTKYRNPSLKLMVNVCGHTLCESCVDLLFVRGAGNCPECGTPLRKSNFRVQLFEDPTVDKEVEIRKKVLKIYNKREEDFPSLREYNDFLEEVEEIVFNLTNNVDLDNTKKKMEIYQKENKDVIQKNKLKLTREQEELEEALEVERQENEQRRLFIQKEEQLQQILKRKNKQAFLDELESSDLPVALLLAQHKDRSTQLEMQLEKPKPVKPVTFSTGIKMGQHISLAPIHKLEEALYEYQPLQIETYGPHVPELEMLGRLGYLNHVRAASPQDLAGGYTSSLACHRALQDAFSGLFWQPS
T2 sequence (Q00534 whole entry): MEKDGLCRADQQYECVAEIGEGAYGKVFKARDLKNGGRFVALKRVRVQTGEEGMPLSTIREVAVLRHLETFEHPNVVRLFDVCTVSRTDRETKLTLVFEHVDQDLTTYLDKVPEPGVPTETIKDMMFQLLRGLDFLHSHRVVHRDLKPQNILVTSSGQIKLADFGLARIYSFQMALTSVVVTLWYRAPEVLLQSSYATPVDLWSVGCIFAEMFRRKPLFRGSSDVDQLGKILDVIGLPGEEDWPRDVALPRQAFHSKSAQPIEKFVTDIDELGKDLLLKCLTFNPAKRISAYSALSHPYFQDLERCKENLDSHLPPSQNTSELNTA
T2 sequence (P30281 whole entry partner): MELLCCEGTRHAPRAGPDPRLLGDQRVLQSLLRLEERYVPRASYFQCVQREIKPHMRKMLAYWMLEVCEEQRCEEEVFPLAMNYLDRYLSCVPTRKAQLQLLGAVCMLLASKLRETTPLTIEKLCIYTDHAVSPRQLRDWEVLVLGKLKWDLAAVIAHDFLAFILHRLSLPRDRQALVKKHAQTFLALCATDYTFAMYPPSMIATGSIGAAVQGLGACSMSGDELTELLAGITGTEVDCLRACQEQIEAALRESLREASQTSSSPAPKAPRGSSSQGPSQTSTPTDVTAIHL

Row | IC50 (CDK7/CyclinH/MAT1) | IC50 (CDK6/CyclinD3) | IC50 (CDK2/CyclinE1) | SMILES
1 | 10 to 100 nM | 10 to 100 nM | 10 to 100 nM | Cc1c(C(C)(C)O)cnc2c(F)cc(-c3nc(N[C@@H]4CCOC[C@H]4O)ncc3F)cc12 [Example 23, (3S,4R)-4-((5-fluoro-4-(8-fluoro-3-(2-hydroxypropan-2-yl)-4-methylquinolin-6-yl)pyrimidin-2-yl)amino)tetrahydro-2H-pyran-3-ol]
2 | ≥ 1000 nM | 100 to 1000 nM | 100 to 1000 nM | Cc1nc2c(F)cc(-c3nc(N[C@@H]4CCOC[C@H]4O)ncc3Cl)cc2c(Cl)c1C(C)O (single isomer, unassigned) [Example 35b]
3 | ≥ 1000 nM | 100 to 1000 nM | ≥ 1000 nM | Cc1c(C(C)(C)O)cnc2c(C)cc(-c3nc(N[C@@H]4CCOC[C@H]4O)ncc3Cl)cc12 [Example 58]
4 | 10 to 100 nM | 10 to 100 nM | 10 to 100 nM | O[C@@H]1COCC[C@H]1Nc1ncc(Cl)c(-c2cc(F)c3c(c2)N2CCNC[C@@H]2CO3)n1 [Example 19, (3S,4R)-4-((5-chloro-4-((R)-7-fluoro-1,2,3,4,4a,5-hexahydrobenzo[b]pyrazino[1,2-d][1,4]oxazin-9-yl)pyrimidin-2-yl)amino)tetrahydro-2H-pyran-3-ol]
5 | ≥ 1000 nM | 10 to 100 nM | 100 to 1000 nM | Cc1nc2c(F)cc(-c3nc(N[C@@H]4CCOC[C@H]4O)ncc3Cl)cc2cc1C(C)NC1CC1 (single isomer, unassigned) [Example 73b]
6 | ≥ 1000 nM | 10 to 100 nM | 100 to 1000 nM | CC(C)(O)c1cnc2c(F)cc(-c3nc(N[C@@H]4CCOC[C@H]4O)ncc3Cl)cc2c1Cl [Example 17, (3S,4R)-4-((5-chloro-4-(4-chloro-8-fluoro-3-(2-hydroxypropan-2-yl)quinolin-6-yl)pyrimidin-2-yl)amino)tetrahydro-2H-pyran-3-ol]
7 | ≥ 1000 nM | 10 to 100 nM | 100 to 1000 nM | CC1(C)Cc2cnc3c(F)cc(-c4nc(N[C@@H]5CCOC[C@H]5O)ncc4Cl)cc3c2CN1 [Example 30]
8 | ≥ 1000 nM | 10 to 100 nM | ≥ 1000 nM | CC(C)(O)c1cnc2c(F)cc(-c3nc(Nc4ccc(-c5c[nH]cn5)cn4)ncc3F)cc2c1Cl [Example 52]
9 | 100 to 1000 nM | 10 to 100 nM | 100 to 1000 nM | Cc1nc2c(F)cc(-c3nc(N[C@@H]4CCOC[C@H]4O)ncc3F)cc2c(C)c1C(C)O (single isomer, unassigned) [Example 81a]
10 | 10 to 100 nM | 100 to 1000 nM | 10 to 100 nM | O[C@@H]1COCC[C@H]1Nc1ncc(F)c(-c2cc(F)c3ncc4c(c3c2)CNC2(CC2)C4)n1 [Example 56]
11 | ≥ 1000 nM | 100 to 1000 nM | 100 to 1000 nM | Cc1nc2c(F)cc(-c3nc(N[C@@H]4CCOC[C@H]4O)ncc3Cl)cc2cc1C1CCCN1 (single isomer, unassigned) [Example 57a]
12 | ≥ 1000 nM | 100 to 1000 nM | 100 to 1000 nM | CC1(C)Cc2cnc3c(F)cc(-c4nc(N[C@@H]5CCOC[C@H]5O)ncc4C#N)cc3c2CN1 [Example 49]
13 | ≥ 1000 nM | 100 to 1000 nM | 100 to 1000 nM | Cc1[nH]cnc1-c1cnc2c(F)cc(-c3nc(N[C@@H]4CCOC[C@H]4O)ncc3Cl)cc2c1 [Example 18, (3S,4R)-4-((5-chloro-4-(8-fluoro-3-(5-methyl-1H-imidazol-4-yl)quinolin-6-yl)pyrimidin-2-yl)amino)tetrahydro-2H-pyran-3-ol]
14 | ≥ 1000 nM | 100 to 1000 nM | 100 to 1000 nM | CNC(C)c1cc2cc(-c3nc(N[C@@H]4CCOC[C@H]4O)ncc3Cl)cc(F)c2nc1C (single isomer, unassigned) [Example 45a]
15 | ≥ 1000 nM | 10 to 100 nM | 100 to 1000 nM | CC(C)(O)c1cnc2c(F)cc(-c3nc(N[C@@H]4CCOC[C@H]4O)ncc3C#N)cc2c1Cl [Example 41]
16 | 100 to 1000 nM | 100 to 1000 nM | 100 to 1000 nM | O[C@@H]1COCC[C@H]1Nc1ncc(Cl)c(-c2cc(F)c3ncc4c(c3c2)CNCC4)n1 [Example 9, (3S,4R)-4-((5-chloro-4-(7-fluoro-1,2,3,4-tetrahydrobenzo[c][2,6]naphthyridin-9-yl)pyrimidin-2-yl)amino)tetrahydro-2H-pyran-3-ol]
17 | 100 to 1000 nM | 100 to 1000 nM | 100 to 1000 nM | O[C@@H]1COCC[C@H]1Nc1ncc(Cl)c(-c2cc(F)c3ncc4c(c3c2)C2CCC(C4)N2)n1 (single isomer, unassigned) [Example 20b]
18 | ≥ 1000 nM | 100 to 1000 nM | ≥ 1000 nM | [2H]C([2H])([2H])C(O)(c1cc2cc(-c3nc(N[C@@H]4CCOC[C@H]4O)ncc3Cl)cc(F)c2nc1C)C([2H])([2H])[2H] [Example 60, (3S,4R)-4-((5-chloro-4-(8-fluoro-3-(2-hydroxypropan-2-yl-1,1,1,3,3,3-d6)-2-methylquinolin-6-yl)pyrimidin-2-yl)amino)tetrahydro-2H-pyran-3-ol]
19 | 10 to 100 nM | 10 to 100 nM | < 10 nM | O[C@@H]1COCC[C@H]1Nc1ncc(Cl)c(-c2cc(F)c3ncc4c(c3c2)CCNC4)n1 [Example 8, (3S,4R)-4-((5-chloro-4-(7-fluoro-1,2,3,4-tetrahydrobenzo[c][2,7]naphthyridin-9-yl)pyrimidin-2-yl)amino)tetrahydro-2H-pyran-3-ol]
20 | 100 to 1000 nM | 10 to 100 nM | 100 to 1000 nM | CC1(C)NCc2c(cnc3c(F)cc(-c4nc(N[C@@H]5CCOC[C@H]5O)ncc4F)cc23)C1O (single isomer, unassigned) [Example 106b]
21 | ≥ 1000 nM | 10 to 100 nM | 100 to 1000 nM | Cc1nc2c(F)cc(-c3nc(N[C@@H]4CCOC[C@H]4O)ncc3Cl)cc2c(Cl)c1C(C)O (single isomer, unassigned) [Example 35a]
22 | 100 to 1000 nM | 100 to 1000 nM | 100 to 1000 nM | CC(O)c1cnc2c(F)cc(-c3nc(N[C@@H]4CCOC[C@H]4O)ncc3Cl)cc2c1Cl (single isomer, unassigned) [Example 40a]
23 | ≥ 1000 nM | 100 to 1000 nM | ≥ 1000 nM | CC(C)n1c(C(C)(C)O)nc2c(F)cc(-c3cc(N[C@@H]4CCOC[C@H]4O)ncc3Cl)cc21 [Example 12, (3S,4R)-4-((5-chloro-4-(4-fluoro-2-(2-hydroxypropan-2-yl)-1-isopropyl-1H-benzo[d]imidazol-6-yl)pyridin-2-yl)amino)tetrahydro-2H-pyran-3-ol]
24 | ≥ 1000 nM | 10 to 100 nM | 100 to 1000 nM | Cc1nc2c(F)cc(-c3nc(N[C@@H]4CCOC[C@H]4O)ncc3Cl)cc2c(C)c1[C@@H](C)O (single isomer, unassigned) [Example 15a]
25 | 100 to 1000 nM | 10 to 100 nM | 100 to 1000 nM | [2H]c1nc2c(F)cc(-c3nc(N[C@@H]4CCOC[C@H]4O)ncc3Cl)cc2c2c1CC(C)(C)NC2 [Example 100]
